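Step 1: Grow cells in 96-well plates. Step 2: Expose to compound for 48 hours at 5 concentrations. Step 3: Interpolate endpoints linearly; if unreached, use highest concentration. Abbreviation: GI50, concentration required for 50% inhibition of growth.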 Activity calls are given as the source filed them. Rule as the data show it: active = GI50 up to about 1.1 µM and inactive = higher.
Key:
Test in all cases: DTP human tumour cell line panel, 48 h
RXF 631 = system: RXF 631
DLD-1 = system: DLD-1
DMS-114 = system: DMS-114
KM-20L2 = system: KM-20L2
LXFL 529 = system: LXFL 529
HOP-18 = system: HOP-18
M19-MEL = system: M19-MEL
SNB-78 = system: SNB-78
DMS-273 = system: DMS-273

| Structure (SMILES) | GI50 (RXF 631) | GI50 (DLD-1) | GI50 (DMS-114) | GI50 (KM-20L2) | GI50 (LXFL 529) | GI50 (HOP-18) | GI50 (M19-MEL) | GI50 (SNB-78) | GI50 (DMS-273) |
| --- | --- | --- | --- | --- | --- | --- | --- | --- | --- |
| COC(=O)C1=CNC(C(=O)OC)=NN1 | > 100 µM (inactive) | > 100 µM (inactive) | > 100 µM (inactive) | > 100 µM (inactive) | > 100 µM (inactive) | > 100 µM (inactive) | > 100 µM (inactive) |  |  |
| CCn1cc(C(=O)O)c(=O)c2cc(F)c(N3CCNCC3)nc21 [ENOXACIN] | > 100 µM (inactive) | > 100 µM (inactive) | > 100 µM (inactive) |  | > 100 µM (inactive) | > 100 µM (inactive) | 87.9 µM (inactive) | > 100 µM (inactive) | > 100 µM (inactive) |
| CCN(CC)C(=O)c1c(N2CCOCC2)cc(N(CC)CC)oc1=O |  | > 100 µM (inactive) | > 100 µM (inactive) | > 100 µM (inactive) | > 100 µM (inactive) | > 100 µM (inactive) | > 100 µM (inactive) | > 100 µM (inactive) | > 100 µM (inactive) |
| CC(C)C(Sc1nc(-c2ccccc2)c(-c2ccccc2)[nH]1)C(=O)NNC(=S)Nc1ccccc1 (centres undefined) |  | 25.8 µM (inactive) |  | 18.4 µM (inactive) | 15.5 µM (inactive) |  | 18.9 µM (inactive) | 25 µM (inactive) | 17.7 µM (inactive) |
| C/C(=N\NC(=S)N(C)C)c1ncc[nH]1 |  | 2.9 µM (inactive) | 3.13 µM (inactive) | 3.57 µM (inactive) | 2.98 µM (inactive) | 5.37 µM (inactive) | 5.6 µM (inactive) |  |  |
| CCC1CC2C(=O)N(c3ccccc3)C(=O)C2c2[nH]c3ccccc3c21 (centres undefined) | 13.3 µM (inactive) | 24 µM (inactive) | 13.9 µM (inactive) |  | 20.2 µM (inactive) | 14.3 µM (inactive) | 20.4 µM (inactive) | 26.6 µM (inactive) | > 10 µM (inactive) |
| CCCc1c[nH]c(-c2ccc(-c3cc(CCC)c(C=O)[nH]3)s2)c1 |  | 15 µM (inactive) | 14.1 µM (inactive) |  | 18.8 µM (inactive) | 27.7 µM (inactive) | 7.93 µM (inactive) | 20.1 µM (inactive) | 14.9 µM (inactive) |
| COc1cc2c(c(OC(C)=O)c1OC(C)=O)-c1ccc(SC)c(=O)cc1C(NC(C)=O)CC2 (centres undefined) |  | 3.91 µM (inactive) | 0.618 µM (active) | 1.85 µM (inactive) | 0.955 µM (active) | > 91 µM (inactive) | 1.39 µM (inactive) | 0.48 µM (active) | 1.41 µM (inactive) |
| CC1=C(C(=O)Nc2cc(=O)n(C)c(=O)n2C)C(c2ccc([N+](=O)[O-])cc2)C(C(=O)Nc2cc(=O)n(C)c(=O)n2C)=C(C)N1 | > 100 µM (inactive) | 90.8 µM (inactive) | 73.5 µM (inactive) | > 100 µM (inactive) | 51.8 µM (inactive) | 51.5 µM (inactive) | > 100 µM (inactive) | > 100 µM (inactive) |  |
| COc1ccc(N2C(=O)c3c(c4[nH]c5ccc(OC)cc5c4c4ccc(C(C)(C)C)cc34)C2=O)cc1 |  | > 100 µM (inactive) | > 100 µM (inactive) |  | > 100 µM (inactive) | > 100 µM (inactive) | > 100 µM (inactive) | > 100 µM (inactive) | > 100 µM (inactive) |
| COC(=O)NN=C1C(C)(C)C(=NNC(=O)OC)C1(C)C | > 100 µM (inactive) | > 61.9 µM (inactive) | > 41.6 µM (inactive) | > 100 µM (inactive) | > 100 µM (inactive) | > 100 µM (inactive) | > 40.6 µM (inactive) | > 100 µM (inactive) | > 100 µM (inactive) |
| CC1(C)CCC[C@@]2(C)C1C[C@H](O)[C@@]1(C)O[C@@](C)([C@H](O)CO)CCC21 (some centres undefined) | 86.9 µM (inactive) |  | 25.3 µM (inactive) | 40.5 µM (inactive) | 43.2 µM (inactive) | 26.1 µM (inactive) | 40.8 µM (inactive) | 40.3 µM (inactive) | 44.2 µM (inactive) |
| Clc1ccc(C[P+]2(c3ccccc3)CCCCC2)cc1.[O-][Cl+3]([O-])([O-])[O-] |  | > 100 µM (inactive) | 50.4 µM (inactive) | 54.6 µM (inactive) | 37.1 µM (inactive) | > 100 µM (inactive) | 28.7 µM (inactive) | 52.4 µM (inactive) | 57.5 µM (inactive) |
| Cc1cc(S(=O)(=O)O)c(NC(=O)C(=O)C2C=CCS2(=O)=O)cc1Cl (centres undefined) |  | > 100 µM (inactive) | > 100 µM (inactive) | > 100 µM (inactive) | > 100 µM (inactive) | > 100 µM (inactive) | > 100 µM (inactive) | > 100 µM (inactive) | > 100 µM (inactive) |
| O=C1c2ccccc2S[C@@H](O)[C@@H]2CCCN12 |  | > 100 µM (inactive) | > 100 µM (inactive) | > 100 µM (inactive) | > 100 µM (inactive) | > 100 µM (inactive) | > 100 µM (inactive) | > 100 µM (inactive) | > 100 µM (inactive) |
| CC(=O)NC1=C(C)C(=O)c2c(nc3n2CCC3O)C1=O (centres undefined) |  | 39.5 µM (inactive) | 5.56 µM (inactive) | > 72.1 µM (inactive) | 19.6 µM (inactive) | > 100 µM (inactive) | 25.6 µM (inactive) | 31.3 µM (inactive) | 44.8 µM (inactive) |
| O=[N+]([O-])c1cc(C2SCc3nc4ccccc4n32)ccc1Cl (centres undefined) |  | 26.1 µM (inactive) | 20.1 µM (inactive) |  | 23.1 µM (inactive) | 76.7 µM (inactive) | 22.2 µM (inactive) | 23.2 µM (inactive) | 24.2 µM (inactive) |
